# Reference: ChEMBL document CHEMBL1131266, “Synthesis and pharmacological evaluation of new flosulide analogues, synthesized from natural safrole” (1998)
# Legend:
# Rattus norvegicus [1] = assay: Percent inhibition of pleural inflammation in carrageenan-induced rat model was determined by comparing with vehicle control group when tested on 5 rats at peroral dose of 100 umol/Kg; type: functional; details: po
# Rattus norvegicus [2] = assay: Percent inhibition of edema in carrageenan-induced rat paw edema was determined by comparing with vehicle control group when tested on 14 rats at peroral dose of 100 umol/Kg; Not significant; type: functional; details: po
# Rattus norvegicus [3] = assay: Percent inhibition of edema in carrageenan-induced rat paw edema was determined by comparing with vehicle control group when tested on 5 rats at peroral dose of 100 umol/Kg; type: functional; details: po
# Rattus norvegicus [4] = assay: Percent inhibition of edema in carrageenan-induced rat paw edema was determined by comparing with vehicle control group when tested on 10 rats at peroral dose of 100 umol/Kg; type: functional; details: po
# Rattus norvegicus [5] = assay: Percent inhibition of pleural inflammation in carrageenan-induced rat model was determined by comparing with vehicle control group when tested on 10 rats at peroral dose of 100 umol/Kg; type: functional; details: po
# Rattus norvegicus [6] = species: Rattus norvegicus; assay: animal or person; details: po, read-out: Inhibition
# Description: Percent inhibition of pleural inflammation in carrageenan-induced rat model was determined by comparing with vehicle control group when tested on 8 rats at peroral dose of 100 umol/Kg
compound,measurement,setting,value
CNS(=O)(=O)c1cc2c(cc1Cc1ccccc1)OCO2,inhibition in vivo at 100 µmol/kg,Rattus norvegicus [1],46%
same,inhibition in vivo at 100 µmol/kg,Rattus norvegicus [2],2.7%
CS(=O)(=O)Nc1cc2c(cc1Cc1cccc(C(F)(F)F)c1)OCO2,inhibition in vivo at 100 µmol/kg,Rattus norvegicus [3],19.7%
same,inhibition in vivo at 100 µmol/kg,Rattus norvegicus [1],24.6%
CS(=O)(=O)Nc1cc2c(cc1Cc1ccccc1)OCO2,inhibition in vivo at 100 µmol/kg,Rattus norvegicus [1],43.1%
same,inhibition in vivo at 100 µmol/kg,Rattus norvegicus [4],21%
O=S(=O)(Nc1ccccc1)c1cc2c(cc1Cc1ccccc1)OCO2,inhibition in vivo at 100 µmol/kg,Rattus norvegicus [3],27.2%
same,inhibition in vivo at 100 µmol/kg,Rattus norvegicus [1],24.6%
COc1ccc2c(c1)c(CC(=O)O)c(C)n2C(=O)c1ccc(Cl)cc1 [INDOMETHACIN],inhibition in vivo at 100 µmol/kg,Rattus norvegicus [3],85.4%
same,inhibition in vivo at 100 µmol/kg,Rattus norvegicus [5],31.7%
CS(=O)(=O)Nc1ccc([N+](=O)[O-])cc1Oc1ccccc1 [NIMESULIDE],inhibition in vivo at 100 µmol/kg,Rattus norvegicus [3],61.7%
same,inhibition in vivo at 100 µmol/kg,Rattus norvegicus [6],29.9%
